Test results published in patent US4195172A.
Values after ≈ are worked out from the molar mass of the structure shown. Values joined by “and” are separate entries in the source; they are usually repeats but may differ in a detail not shown here. Equal entries are not always repeated. Structures can show the parent of a compound that is named as a salt. Where two headings read alike, the source gives them in different places.

Columns and labels:
[1] = prior art; cited from earlier work
[2] = IC50 of products of the examples and original antibiotics; format: cell-based; settings: test organism not given
[3] = Acute toxicity on intravenous administration in mice; settings: mouse, in vivo, administered intravenously, read-out: DL50 (the source's name)
[4] = Selective toxicity: potassium ion effluence from human erythrocytes versus Saccharomyces cerevisiae cells; format: cell-based; settings: human erythrocytes vs saccharomyces cerevisiae; 50% effluence of potassium ions from human erythrocytes / from Saccharomyces cerevisiae cells; column head is drawing 1; read-out: Selective toxicity index EK50/DK50
Description: (§1) The data representing the selective toxicity are also more advantageous for the N-methylglucamine salt of N-glycosyl derivatives of polyene macrolides than for Fungizone. The indices of selective toxicity EK50 /DK50 and EH50 /DK50, illustrating the ratio of the minimal antibiotic concentration causing 50% effluence of the potassium ions from erythrocytes of human blood/EK50 /and the minimal concentration of antibiotic causing 50% hemolysis of erythrocytes/EH50 /to the minimal antibiotic concentration causing 50% effluence of the potassium ions from Saccharomyces cerevisiae cells/DK50 /are compared in Table 6.

[5] = Selective toxicity: hemolysis of human erythrocytes versus potassium ion effluence from Saccharomyces cerevisiae cells; format: cell-based; settings: human erythrocytes vs saccharomyces cerevisiae; 50% hemolysis of human erythrocytes / 50% potassium effluence from Saccharomyces cerevisiae cells; column head is drawing 2; read-out: Selective toxicity index EH50/DK50
Description: as §1

Geotrichum candidum = assay: Protection of mice in generalized geotrichosis; format: in vivo; settings: for ED50: read-out: Average protective DP50 doses, generalized geotrichosis; for in vivo activity compared with Fungizone (in words), geotrichosis: generalized geotrichosis caused by Geotrichum candidum
Experimental: (§2) Average protective DP50 doses
(§3) 24 hours in a case of genera-

Aspergillus fumigatus = assay: Protection of mice in generalized aspergillosis; format: in vivo; settings: for ED50: read-out: Average protective DP50 doses, generalized aspergillosis
Experimental: as §2, §3

[6] = Presence of antibiotic in serum after intravenous administration to rats; format: in vivo
Description: In intravenous administration to rats of N-methylglucamine salts of polyene macrolide N-glycosyl derivatives as compared to Fungizone the effect is much more advantageous for the N-methylglucamine salts because the presence of antibiotic in the serum after administration can be found longer that in the case of Fungizone/Table 5/.

pH of 1% water solution = format: physicochemical
Candida albicans [7] = assay: Experimental chemotherapy of Candida albicans infected mice; format: in vivo; settings: Fungizone = 1
Description: The relative activity index representing the antibiotic activity in experimental chemotherapy of Candida albicans infected mice is much more advantageous for the N-methylglucamine salts of the N-glycosyl derivatives of polyene macrolides than for Fungizone/Table 4/.

[8] = Biological activity in U/mg; format: cell-based
[9] = tested on: Torula sp., Geotrichum candidum and Cryptococcus neoformans; assay: In vitro antifungal activity in comparison with Fungizone (in words); format: cell-based
Description: The in vitro activities of the N-methylglucamine salts of the N-glycosyl derivative of amphotericin B and Fungizone against some fungi are compared in Table 3.

Candida tropicalis = assay: Sensitivity of Candida tropicalis strains; format: cell-based
Description: (§4) There is a different sensitivity of different strains, for example Candida sp. to the N-methylglucamine salt of the N-glycosyl derivative of amphotericin B and Fungizone. Statistically, the amount of to Fungizone insensitive strains is much higher than the amount of to N-methylglucaminesalt of the said derivative insensitive strains. This especially concerns Candida albicans strains ZM, HM, and 1/75, Candida tropicalis strains JD and 20/75 and Candida krusei strains TS and 16/75, which are insensitive to Fungizone, but sensitive to N-methylglucamine salt of N-glycosyl derivative of amphotericin B.

Candida krusei = assay: Sensitivity of Candida krusei strains; format: cell-based
Description: as §4

[10] = Stability on storage at different temperatures within 6 months (retained biological activity); settings: storage within 6 months, initial biological activity assumed as 100%, 262800 min
Candida albicans [11] = assay: Sensitivity of Candida albicans strains; format: cell-based
Description: as §4

[12] = aspergillosis caused by Aspergillus fumigatus

COC(=O)[C@H]1[C@@H]2C[C@@H](O[C@@H]3O[C@H](C)[C@@H](O)[C@H](N)[C@@H]3O)/C=C/C=C/C=C/C=C/C=C/C=C/C=C/[C@H](C)[C@@H](O)[C@@H](C)[C@H](C)OC(=O)C[C@H](O)C[C@H](O)CC[C@@H](O)[C@H](O)C[C@H](O)C[C@](O)(C[C@@H]1O)O2 [hydrochloride of methyl esters of amphotericin B]
solubility in water (in words, from literature) [1]: forms in water merely micelle

C[C@@H]1[C@H](O)[C@@H](C)/C=C/C=C/CC/C=C/C=C/C=C/C=C/[C@H](O[C@@H]2O[C@H](C)[C@@H](O)[C@H](N)[C@@H]2O)C[C@@H]2O[C@](O)(C[C@@H](O)[C@H](O)CC[C@@H](O)C[C@@H](O)C[C@@H](O)CC(=O)O[C@H]1C)C[C@H](O)[C@H]2C(=O)O [nystatin, reference compound]
IC50 ([2]; read-out: IC50): 0.18 µg/mL (≈ 0.194 µM)

C[C@@H]1[C@H](O)[C@@H](C)/C=C/C=C/C=C/C=C/C=C/C=C/C=C/[C@H](O[C@@H]2O[C@H](C)[C@@H](O)[C@H](NC3O[C@H](CO)[C@@H](O)[C@H](O)[C@H]3O)[C@@H]2O)C[C@@H]2O[C@](O)(C[C@@H](O)C[C@@H](O)[C@H](O)CC[C@@H](O)C[C@@H](O)CC(=O)O[C@H]1C)C[C@H](O)[C@H]2C(=O)O (stereo partly drawn) [VIII, N-methylglucamine salt of N-glycosyl derivative of amphotericin B]
IC50 [2]: 0.1 µg/mL

C[C@@H]1[C@H](O)[C@@H](C)/C=C/C=C/CC/C=C/C=C/C=C/C=C/[C@H](O[C@@H]2O[C@H](C)[C@@H](O)[C@H](NC3O[C@H](CO)[C@@H](O)[C@H](O)[C@H]3O)[C@@H]2O)C[C@@H]2O[C@](O)(C[C@@H](O)[C@H](O)CC[C@@H](O)C[C@@H](O)C[C@@H](O)CC(=O)O[C@H]1C)C[C@H](O)[C@H]2C(=O)O (stereo partly drawn) [N-methylglucamine salt of N-glycosyl derivative of nystatin] [listing 1 of 2 here]
LD50 [3]: 19 mg/kg
selectivity ratio [4]: 17.3
selectivity ratio [5]: 45
ED50 (Geotrichum candidum; Geotrichum candidum): 4.49 mg/kg
ED50 (Aspergillus fumigatus; Aspergillus fumigatus): 6.28 mg/kg

C[C@@H]1[C@H](O)[C@@H](C)/C=C/C=C/CC/C=C/C=C/C=C/C=C/[C@H](O[C@@H]2O[C@H](C)[C@@H](O)[C@H](NC3O[C@H](CO)[C@@H](O[C@H]4O[C@H](CO)[C@@H](O)[C@H](O)[C@H]4O)[C@H](O)[C@H]3O)[C@@H]2O)C[C@@H]2O[C@](O)(C[C@@H](O)[C@H](O)CC[C@@H](O)C[C@@H](O)C[C@@H](O)CC(=O)O[C@H]1C)C[C@H](O)[C@H]2C(=O)O (stereo partly drawn) [XI, N-methylglucamine salt of N-glycosyl nystatin]
IC50 ([2]; read-out: IC50): 0.45 µg/mL

C[C@@H]1[C@H](O)[C@@H](C)/C=C/C=C/C=C/C=C/C=C/C=C/C=C/[C@H](O[C@@H]2O[C@H](C)[C@@H](O)[C@H](NC3O[C@H](CO)[C@@H](O)[C@H](O)[C@H]3O)[C@@H]2O)C[C@@H]2O[C@](O)(C[C@@H](O)C[C@@H](O)[C@H](O)CC[C@@H](O)C[C@@H](O)CC(=O)O[C@H]1C)C[C@H](O)[C@H]2C(=O)O (stereo partly drawn) [II, tris salt of the N-glycosyl derivative of amphotericin B]
IC50 [2]: 0.6 µg/mL

C[C@@H]1[C@H](O)[C@@H](C)/C=C/C=C/CC/C=C/C=C/C=C/C=C/[C@H](O[C@@H]2O[C@H](C)[C@@H](O)[C@H](NC3O[C@H](CO)[C@@H](O)[C@H](O)[C@H]3O)[C@@H]2O)C[C@@H]2O[C@](O)(C[C@@H](O)[C@H](O)CC[C@@H](O)C[C@@H](O)C[C@@H](O)CC(=O)O[C@H]1C)C[C@H](O)[C@H]2C(=O)O (stereo partly drawn) [N-methylglucamine salt of N-glycosyl derivative of nystatin] [listing 2 of 2 here]
Time of the presence of an antibiotic in serum after 1/5 DL50 dose administration [6]: 30 min
Solubility in water (Solubility in water): > 15%
pH 1% water solution (pH of 1% water solution): 8.3
Relative activity index in Candida albicans mice infection (Candida albicans [7]): 2.41
Biological activity [8]: 1780 U/mg
in vivo activity compared with Fungizone (in words), geotrichosis (Geotrichum candidum): higher activity than Fungizone
in vivo activity compared with Fungizone (in words), aspergillosis (Aspergillus fumigatus; [12]): higher activity than Fungizone

polifungin [reference compound]
IC50 [2]: 0.15 µg/mL and 0.16 µg/mL

C[C@@H]1[C@H](O)[C@@H](C)/C=C/C=C/C=C/C=C/C=C/C=C/C=C/[C@H](O[C@@H]2O[C@H](C)[C@@H](O)[C@H](NC3O[C@H](CO)[C@@H](O)[C@H](O)[C@H]3O)[C@@H]2O)C[C@@H]2O[C@](O)(C[C@@H](O)C[C@@H](O)[C@H](O)CC[C@@H](O)C[C@@H](O)CC(=O)O[C@H]1C)C[C@H](O)[C@H]2C(=O)O (stereo partly drawn) [N-methylglucamine salt of N-glycosyl derivative of amphotericin B]
antifungal activity in comparison with Fungizone (in words) [9]: exhanced antifungal activity
LD50 [3]: 12.1 to 14.3 mg/kg
Time of the presence of an antibiotic in serum after 1/5 DL50 dose administration [6]: 15 min
selectivity ratio [4]: 1.37
sensitivity of strain (Candida tropicalis; Candida tropicalis strain 20/75): sensitive
sensitivity of strain (Candida tropicalis; Candida tropicalis strain JD): sensitive
selectivity ratio [5]: 24
Relative activity index in Candida albicans mice infection (Candida albicans [7]): 2.35
sensitivity of strain (Candida krusei; Candida krusei strain 16/75): sensitive
sensitivity of strain (Candida krusei; Candida krusei strain TS): sensitive
Biological activity in % at +37° C. ([10]; +37° C.): 77.0%
Biological activity in % at +50° C. ([10]; +50° C.): 79.8%
Biological activity in % at RT ([10]; RT): 83.1%
in vivo activity compared with Fungizone (in words), geotrichosis (Geotrichum candidum): corresponds to activity of Fungizone
ED50 (Geotrichum candidum; mice, geotrichosis caused by Geotrichum candidum): 17.9 mg/kg
remaining at 4380 h (physchem): 81.2%
sensitivity of strain (Candida albicans [11]; Candida albicans strain 1/75): sensitive
sensitivity of strain (Candida albicans [11]; Candida albicans strain HM): sensitive
sensitivity of strain (Candida albicans [11]; Candida albicans strain ZM): sensitive
in vivo activity compared with Fungizone (in words), aspergillosis (Aspergillus fumigatus; [12]): corresponds to activity of Fungizone
ED50 (Aspergillus fumigatus; mice, aspergillosis caused by Aspergillus fumigatus): 22.7 mg/kg

C[C@@H]1[C@H](O)[C@@H](C)/C=C/C=C/C=C/C=C/C=C/C=C/C=C/[C@H](O[C@@H]2O[C@H](C)[C@@H](O)[C@H](NC3O[C@H](CO)[C@@H](O)[C@H](O)[C@H]3O)[C@@H]2O)C[C@@H]2O[C@](O)(C[C@@H](O)C[C@@H](O)[C@H](O)CC[C@@H](O)C[C@@H](O)CC(=O)O[C@H]1C)C[C@H](O)[C@H]2C(=O)O (stereo partly drawn) [Example I, sodium salt of the N-glycosyl derivative of the amphotericin B]
IC50 [2]: 0.05 µg/mL

C[C@@H]1[C@H](O)[C@@H](C)/C=C/C=C/CC/C=C/C=C/C=C/C=C/[C@H](O[C@@H]2O[C@H](C)[C@@H](O)[C@H](NC3O[C@H](CO)[C@@H](O)[C@H](O)[C@H]3O)[C@@H]2O)C[C@@H]2O[C@](O)(C[C@@H](O)[C@H](O)CC[C@@H](O)C[C@@H](O)C[C@@H](O)CC(=O)O[C@H]1C)C[C@H](O)[C@H]2C(=O)O (stereo partly drawn) [Sodium salt of N-glycosyl derivative of nystatin] [reference compound]
Solubility in water (Solubility in water): 4-10%
pH 1% water solution (pH of 1% water solution): 9.7
Biological activity [8]: 1296 U/mg

C[C@@H]1[C@H](O)[C@@H](C)/C=C/C=C/CC/C=C/C=C/C=C/C=C/[C@H](O[C@@H]2O[C@H](C)[C@@H](O)[C@H](NC3O[C@H](CO)[C@H](O)[C@H](O)[C@H]3O)[C@@H]2O)C[C@@H]2O[C@](O)(C[C@@H](O)[C@H](O)CC[C@@H](O)C[C@@H](O)C[C@@H](O)CC(=O)O[C@H]1C)C[C@H](O)[C@H]2C(=O)O (stereo partly drawn) [X, N-methylglucamine salt of N-glycosyl nystatin]
IC50 ([2]; read-out: IC50): 0.45 µg/mL

C[C@@H]1[C@H](O)[C@@H](C)/C=C/C=C/CC/C=C/C=C/C=C/C=C/[C@H](O[C@@H]2O[C@H](C)[C@@H](O)[C@H](NC3O[C@H](CO)[C@@H](O)[C@H](O)[C@H]3O)[C@@H]2O)C[C@@H]2O[C@](O)(C[C@@H](O)[C@H](O)CC[C@@H](O)C[C@@H](O)C[C@@H](O)CC(=O)O[C@H]1C)C[C@H](O)[C@H]2C(=O)O (stereo partly drawn) [VII, N-methylglucamine salt of the N-glycosyl derivative of nystatin]
IC50 ([2]; read-out: IC50): 0.45 µg/mL
